Columns and labels:
LXRβ = target: T1, LXRβ (Homo sapiens, UniProt P55055); assay: LXR Gal4 reporter transient transfection assay (mammalian two-hybrid, HEK293), LXRβ; type: cell-based; parameters: LXRβ (amino acids 156-461); expressed in transfected cells; host or cells: HEK293; conditions: full length (FL) LXRβ, HEK293; read-out: FL-M2H Gal4β
T1 sequence (P55055 1-460): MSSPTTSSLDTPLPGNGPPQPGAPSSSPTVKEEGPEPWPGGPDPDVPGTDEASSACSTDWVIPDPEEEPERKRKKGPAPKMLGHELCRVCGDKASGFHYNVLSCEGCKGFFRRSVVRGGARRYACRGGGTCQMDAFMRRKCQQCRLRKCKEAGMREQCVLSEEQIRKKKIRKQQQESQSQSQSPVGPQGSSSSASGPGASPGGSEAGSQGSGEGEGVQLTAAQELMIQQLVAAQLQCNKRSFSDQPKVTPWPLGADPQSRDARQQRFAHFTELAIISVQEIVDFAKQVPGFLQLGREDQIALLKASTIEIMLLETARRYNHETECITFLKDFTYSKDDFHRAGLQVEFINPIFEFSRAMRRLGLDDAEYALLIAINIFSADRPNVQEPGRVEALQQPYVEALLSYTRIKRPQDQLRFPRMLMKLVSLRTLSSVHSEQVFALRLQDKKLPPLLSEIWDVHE
Method: LXRα and LXRβ activity status was determined via detection of interaction with coactivator and corepressor proteins in mammalian two-hybrid experiments (M2H). For this, via transient transfection the full length (FL) proteins of LXRα (amino acids 1-447; NP005684; SEQ ID NO:1) or LXRβ-(amino acids 1-461; NP009052; SEQ ID NO:2) or the ligand-binding domains (LBD) of LXRα (amino acids 155-447 SEQ ID NO:3) or LXRβ (amino acids 156-461; SEQ ID NO:4) were expressed from pCMV-AD (Stratagene) as fusions to the transcriptional activation domain of NFkB. As cofactors, domains of either the steroid receptor coactivator 1 (SRC1; amino acids 552-887; SEQ ID NO:5) or of the corepressor NCoR (amino acids 1906-2312; NP006302; SEQ ID NO:6) were expressed as fusions to the DNA binding domain of the yeast transcription factor GAL4 (from pCMV-BD; Stratagene). Interaction was monitored via activation of a coexpressed Firefly Luciferase Reporter gene under control of a promoter containing repetitive GAL4 response elements (vector pFRLuc; Stratagene). Transfection efficiency was controlled via cotransfection of constitutively active pRL-CMV Renilla reniformis luciferase reporter (Promega). HEK293 cells were grown in minimum essential medium (MEM) with 2 mM L-glutamine and Earle's balanced salt solution supplemented with 8.3% fetal bovine serum, 0.1 mM non-essential amino acids, 1 mM sodium pyruvate, at 37° C. in 5% CO2. 3.5×10^4 cells/well were plated in 96-well cell culture plates in growth medium supplemented with 8.3% fetal bovine serum for 16-20 h to ˜90% confluency. For transfection, medium was taken off and LXR and cofactor expressing plasmids as well as the reporter plasmids are added in 30 μL OPTIMEM/well including polyethylene-imine (PEI) as vehicle. Typical amounts of plasmids transfected/well: pCMV-AD-LXR (5 ng), pCMV-BD-cofactor (5 ng), pFR-Luc (100 ng), pRL-CMV (0.5 ng). Compound stocks were prepared in DMSO, prediluted in MEM to a total volume of 120 μL, and added 4 h after addition of the transfection mixture (final vehicle concentration not exceeding 0.2%). Cells were incubated for additional 16 h, lysed for 10 min in 1×Passive Lysis Buffer (Promega) and Firefly and Renilla luciferase activities were measured sequentially in the same cell extract using buffers containing D-luciferine and coelenterazine, respectively. Measurements of luminescence were done in a BMG-luminometer.
The potencies of Compound 21/3 and its analog, Compound pre-6/3, against LXRα and LXRβ were evaluated in biochemical binding assays, cellular mammalian two-hybrid (M2H) interaction assays evaluating nuclear receptor co-repressor (NCOR) recruitment, and cellular reporter assays evaluating transcriptional activity (Table 5).

[1] = target: T2, GST-LXRβ ligand-binding domain (Homo sapiens, UniProt P55055); assay: TR-FRETβ activity assay (NCoA3 coactivator peptide recruitment); type: biochemical; conditions: 1 μM 24(S)-25-epoxycholesterol prestimulation
T2 construct: amino acids 156-461; NP009052; made in house; host or cells: E. coli
T2 sequence (P55055 156-460 limits assumed): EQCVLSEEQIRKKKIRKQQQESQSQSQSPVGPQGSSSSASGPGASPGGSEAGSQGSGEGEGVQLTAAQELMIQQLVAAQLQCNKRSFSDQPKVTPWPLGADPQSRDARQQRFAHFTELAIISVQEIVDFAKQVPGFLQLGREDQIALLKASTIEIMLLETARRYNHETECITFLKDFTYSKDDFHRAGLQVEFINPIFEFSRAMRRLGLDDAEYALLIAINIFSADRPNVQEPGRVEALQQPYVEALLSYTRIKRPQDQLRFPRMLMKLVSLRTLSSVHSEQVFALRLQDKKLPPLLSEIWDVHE
Method: Recombinant GST-LXRβ ligand-binding domain (LBD; amino acids 156-461; NP009052; SEQ ID NO:4) was expressed in E. coli and purified via gluthatione-sepharose affinity chromatography. N-terminally biotinylated NCoA3 coactivator peptide (SEQ ID NO:7) was chemically synthesized (Eurogentec). Assays were done in 384 well format (final assay volume of 25 μL/well) in a Tris/HCl buffer (pH 6.8) containing KCl, bovine serum albumin, Triton-X-100 and 1 μM 24(S)-25-epoxycholesterol as LXR-prestimulating agonist. Assay buffer was provided and test articles (potential LXR inverse agonists) were titrated to yield final assay concentrations of 50 μM, 16.7 μM, 5.6 μM, 1.9 μM, 0.6 μM, 0.2 μM, 0.07 μM, 0.02 μM, 0.007 μM, 0.002 μM with one vehicle control. Finally, a detection mix was added containing anti GST-Tb cryptate (CisBio; 610SAXLB) and Streptavidin-XL665 (CisBio; 610SAXLB) as fluorescent donor and acceptor, respectively, as well as the coactivator peptide and LXRβ-LBD protein (SEQ ID NO:4). The reaction was mixed thoroughly, equilibrated for 1 h at 4° C. and vicinity of LXRβ and coactivator peptide was detected by measurement of fluorescence in a VictorX4 multiplate reader (PerkinElmer Life Science) using 340 nm as excitation and 615 and 665 nm as emission wavelengths. Assays were performed in triplicates.
240 mM KCl, 1 μg/μL BSA, 0.002% Triton-X-100, […] anti GST-Tb cryptate, 2.5 ng/μL Streptavidin-XL665, coactivator peptide (400 nM), LXRβ protein (530 μg/mL, i.e. 76 nM).

SMILES | EC50 (LXRβ) | EC50 [1]
COc1ccc(S(=O)(=O)n2c(-c3cccc(N4CC(C(=O)O)C4)c3)c(-c3ccsc3C#N)c3cc(F)ccc32)cn1 [5/8] | 100 to 1000 nM | 100 to 1000 nM
Cc1ccc(S(=O)(=O)n2c(-c3cccc(N4CC[C@@H](C(=O)O)C[C@H]4C)c3)c(-c3ccsc3C#N)c3cc(F)ccc32)cc1 [5/9] | < 100 nM | 100 to 1000 nM
O=C(O)c1ccc(-c2cccc(-c3c(-c4ncccc4N4CC(O)C4)c4cc(F)ccc4n3S(=O)(=O)c3ccc(C(F)F)cc3)c2)c(Cl)c1 [5/10] | 100 to 1000 nM | 1000 to 10000 nM
N#Cc1sccc1-c1c(-c2cccc(C3CC3C(=O)NO)c2)n(S(=O)(=O)c2ccc(Cl)cc2)c2ccccc12 (stereo not drawn) [6/1] | < 100 nM | 100 to 1000 nM
CC(C)(C)OC(=O)CNC(=O)c1ccc(-c2cccc(-c3c(-c4c(C#N)cccc4C#N)c4cc(F)ccc4n3S(=O)(=O)c3ccc(C(F)F)cc3)c2)c(Cl)c1 [6/3] | < 100 nM | < 100 nM
Cc1ccc(S(=O)(=O)n2c(-c3cccc(-c4ccc(CN(C)C)cc4)c3)c(-c3ccsc3C#N)c3cc(F)ccc32)cc1 [8/1] | < 100 nM | 100 to 1000 nM
O=C(O)c1ccc(-c2cccc(-c3c(-c4ccccc4C4COC4)c4cnccc4n3S(=O)(=O)c3ccc(C(F)F)cc3)c2)c(Cl)c1 [8/3] | < 100 nM | 100 to 1000 nM
N#Cc1ccccc1-c1c(-c2cccc(-c3ccc(C(=O)O)cc3Cl)c2)n(S(=O)(=O)c2ccc(C(F)F)cc2)c2cccnc12 [8/7] | < 100 nM | 100 to 1000 nM
N#Cc1sccc1-c1c(-c2cccc(-c3ccc(C(=O)NCCS(=O)(=O)O)cc3Cl)c2)n(S(=O)(=O)c2ccc(C(F)F)cc2)c2ccc(F)cc12 [10/3] | < 100 nM | < 100 nM
O=C(NCCS(=O)(=O)O)C1CC1c1cccc(-c2c(-c3c(Cl)cccc3Cl)c3cc(F)ccc3n2S(=O)(=O)c2ccc(C(F)F)cc2)c1 (stereo not drawn) [10/4] | < 100 nM | < 100 nM
Cc1ccc(S(=O)(=O)n2c(-c3cccc(-c4ccc(C(=O)O)cc4Cl)c3)c(-c3cccc(F)c3C#N)c3cc(F)ccc32)cc1 [11/1] | < 100 nM | < 100 nM
Cc1ccc(S(=O)(=O)n2c(-c3cccc(-c4ccc(C(=O)O)cc4Cl)c3)c(-c3cccc(C)c3C#N)c3cc(F)ccc32)cc1 [11/2] | < 100 nM | < 100 nM
COc1cccc(-c2c(-c3cccc(-c4ccc(C(=O)O)cc4Cl)c3)n(S(=O)(=O)c3ccc(C)cc3)c3ccc(F)cc23)c1C#N [11/3] | < 100 nM | < 100 nM
Cc1ccc(S(=O)(=O)n2c(-c3cccc(-c4ccc(C(=O)O)cc4Cl)c3)c(-c3ccc(C)cc3C#N)c3cc(F)ccc32)cc1 [11/4] | < 100 nM | 100 to 1000 nM
Cc1ccc(S(=O)(=O)n2c(-c3cccc(-c4ccc(C(=O)O)cc4Cl)c3)c(-c3cc(C)ccc3C#N)c3cc(F)ccc32)cc1 [11/5] | < 100 nM | < 100 nM
